Reference: patent US4383113A, “Agricultural sulfonamides” (E. I. Du Pont de Nemours and Company, priority 1981, dated 1983)

What was measured:
Test in all cases: Test A pre-emergence
Set-up in all cases: key: 0 = no effect, 10 = maximum effect; letter = response symbol
cocklebur = type: in vivo, Xanthium spp.
From the text: (§1) The activity of these compounds was discovered in a number of greenhouse and field tests. The ratings are based on a numerical scale extending from 0=no effect, to 10=maximum effect. The accompanying descriptive symbols have the following meanings:
(§2) Seeds of crabgrass (Digitaria spp.), barnyardgrass (Echinochloa crusgalli), wild oats (Avena fatua), cassia (Cassia tora), morningglory (Ipomoea spp.), cocklebur (Xanthium spp.), sorghum, corn, soybean, rice, wheat and nutsedge tubers (Cyperus rotundus) were planted in a growth medium and treated preemergence with a nonphytotoxic solvent solution of the compounds of Table XII. Other batches of seeds and tubers for all of the foregoing weed and crop plants were planted at the same time as controls. The control plantings were untreated; i.e., neither any compound nor any solvent was applied. At the same time, cotton having five leaves (including cotyledonary ones), bush beans with the third trifoliate leaf expanding, crabgrass with two leaves, barnyardgrass with two leaves, wild oats with two leaves, cassia with three leaves (including cotyledonary ones), morningglory with four leaves (including the cotyledonary ones), cocklebur with four leaves (including the cotyledonary ones), sorghum with four leaves, corn with four leaves, soybean with two cotyledonary leaves, rice with three leaves, wheat with one leaf, and nutsedge with three-five leaves were sprayed with a nonphytotoxic solvent solution of the compounds of Table XII. Other groups of all the same weed and crop plants were sprayed with the same nonphytotoxic solvent so as to provide control plants. Preemergence and postemergence treated plants and controls were maintained in a greenhouse for sixteen days, then all treated plants were compared with their respective controls and rated visually for response to treatment.

barnyardgrass = type: in vivo, Echinochloa crusgalli
From the text: as §1, §2

wheat = type: in vivo
From the text: as §1, §2

soybean = type: in vivo
From the text: as §1, §2

corn = type: in vivo
From the text: as §1, §2

sorghum = type: in vivo
From the text: as §1, §2

cassia = type: in vivo, Cassia tora; details: 0.4 kg/ha
From the text: as §1, §2

crabgrass = type: in vivo, Digitaria spp.; details: 0.4 kg/ha
From the text: as §1, §2

morningglory = type: in vivo, Ipomoea spp.; details: 0.4 kg/ha
From the text: as §1, §2

wild oats = type: in vivo, Avena fatua; details: 0.4 kg/ha
From the text: as §1, §2

Compound | response rating (cocklebur; 0.4 kg/ha) | response rating (cocklebur; 2 kg/ha) | response rating (barnyardgrass; 0.4 kg/ha) | response rating (barnyardgrass; 2 kg/ha) | response rating (wheat; 0.4 kg/ha) | response rating (wheat; 2 kg/ha) | response rating (soybean; 0.4 kg/ha) | response rating (soybean; 2 kg/ha) | response rating (corn; 0.4 kg/ha) | response rating (corn; 2 kg/ha) | response rating (sorghum; 0.4 kg/ha) | response rating (sorghum; 2 kg/ha) | response rating (cassia) | response rating (crabgrass) | response rating (morningglory) | response rating (wild oats)
CCCCOC(=O)c1ccccc1S(=O)(=O)NC(=O)Nc1nc(C)cc(OC)n1 [drawing 507] | 9G | 9G | 9H | 9H | 9H | 9H | 9H | 9H | 9G | 9G | 9H | 9H | 9G | 7G | 9G | 
COc1nc(C)nc(NC(=O)NS(=O)(=O)c2ccccc2C(=O)OC(C)Cc2ccccc2)n1 (stereo not drawn) [drawing 524] | 9G |  | 9H |  | 9H |  | 9H |  | 9H |  | 9H |  |  |  | 9G | 9H
COc1cc(C)nc(NC(=O)NS(=O)(=O)c2ccccc2C(=O)NC(C)C)n1 [drawing 530] | 8G |  | 9H |  | 9H |  | 9H |  | 9H |  | 9H |  | 9G | 9H | 9G | 
COc1cc(C)nc(NC(=O)NS(=O)(=O)c2ccccc2C(=O)N(C)C)n1 [drawing 532] | 9G |  | 9H |  | 9H |  | 9H |  | 9H |  | 9H |  | 9G |  | 9G | 
COC(=O)c1ccccc1S(=O)(=O)NC(=O)Nc1nc(OC)cc(OC(C)C(=O)OC)n1 (stereo not drawn) [drawing 535] |  |  |  |  |  |  | 9H |  | 10H |  | 10H |  |  |  |  | 
CCOCCSc1cc(C)nc(NC(=O)NS(=O)(=O)c2ccccc2C(=O)OC)n1 [drawing 536] |  |  |  |  |  |  | 9H |  | 9G |  | 9H |  |  |  | 9G | 
COCCCOc1cc(C)nc(NC(=O)NS(=O)(=O)c2ccccc2C(=O)OC)n1 [drawing 537] | 9G |  |  |  | 9H |  | 9H |  | 9H |  | 9H |  | 8G |  |  | 
COC(=O)c1ccccc1S(=O)(=O)NC(=O)Nc1nc(C)nc(N(C)C)n1 [drawing 539] | 9G |  |  |  | 9H |  | 9H |  | 9G |  | 9H |  | 8G |  | 9G | 
COCCc1nc(NC(=O)NS(=O)(=O)c2ccccc2C(=O)OC)nc(OC)n1 [drawing 541] | 9G |  |  |  | 6G |  | 9H |  | 10H |  | 9H |  |  |  | 9G | 
COc1cc(C)nc(NC(=O)NS(=O)(=O)c2ccccc2C(=O)SCc2ccccc2)n1 [drawing 542] | 8G |  |  |  | 9H |  | 9H |  | 9G |  | 9H |  | 9G |  | 9G | 
COc1cc(C)nc(NC(=O)NS(=O)(=O)c2ccccc2C(=O)SC2CCCCC2)n1 [drawing 543] | 9G |  | 9H |  | 9H |  | 9H |  | 9G |  | 9H |  | 9G |  | 9H | 
